Experimental data reported in patent publication US20030232765A1, “Aryl urea compounds in combination with other cytostatic or cytotoxic agents for treating human cancers” (BAYER CORPORATION, priority 2001, published 2003).
Where a name gives a salt, the structure may show the parent alone. Read-outs that look alike come from different tables or passages of the source.

Columns and labels:
[1] = system: A549 human non-small cell lung tumor xenografts; experiment: Tumor xenograft experiment, established A549 tumors, anti-tumor efficacy (Example 5); assay type: in vivo; settings: Iressa 150 mg/kg/dose p.o. qd×9, Compound A 80 mg/kg/dose p.o. qd×9; for percent tumor growth suppression (% TGS): alone or combined, endpoint time to one mass doubling
Procedure: (§1) The NCI-H460 cells were maintained and passaged in vitro using DMEM (GIBCO cat. # 11995-065: 500 mls) supplemented with 10% heat inactivated fetal bovine serum (JRH Biosciences cat.# 12106-500M), 2 mM L-glutamine (GIBCO cat. # 25030-81), 10 mM HEPES buffer (GIBCO cat # 15630-080) and penicillin-streptomycin (GIBCO cat. # 15140-122: 5 mls/[…]). The A549 cells were maintained and passaged using RPMI 1640 media (GIBCO cat.# 11875-085: 1000 ml) supplemented with 10% heat-inactivated fetal bovine serum (JRH Biosciences cat.# 12106-500M). All cells were maintained at 37° C. and 5% CO2 in a Fisher Scientific 610 CO2 incubator.
(§2) These schedules are termed ‘Concurrent Therapy’.

[2] = Iressa 150 mg/kg/dose p.o. qd×9; Compound A 80 mg/kg/dose p.o. qd×9; alone or combined; 10 mice per group
Source text: as §2

[3] = system: MX-1 mammary tumor xenografts; experiment: Tumor xenograft experiment, established MX-1 tumors, anti-tumor efficacy (Example 4); settings: DOX 4 mg/kg/dose i.v. q4d×3; Compound A 40 mg/kg/dose p.o. qd×9; alone or combined; endpoint time to four mass doublings
Source text: The DLD-1 human colon carcinoma and the MiaPaCa-2 human pancreatic carcinoma were obtained from the American Type Tissue Culture Collection Repository. The MX-1 human mammary tumor was obtained from the NCI tumor repository. Tumors were maintained as a serial in vivo passage of s.c. fragments (3×3 mm) implanted in the flank using a 12 gauge trocar. A new generation of the passage was initiated every three or four weeks.
Female mice were implanted s.c. with DLD-1, MX-1 or Mia-PaCa-2 tumor fragments from an in vivo passage. […] The general health of mice was monitored and mortality was recorded daily. Tumor dimensions and body weights were recorded twice a week starting with the first day of treatment. […]
Tumor weights were calculated using the equation (l×w^2)/2, where l and w refer to the larger and smaller dimensions collected at each measurement. […] Anti-tumor efficacy was measured as the incidence of complete regressions (CR) defined as tumors that are reduced to below the limit of measurement (3 mm) in both length and width, partial regressions (PR) defined as tumors that are reduced by more than 50% but less than 100% of their initial size, and percent tumor growth suppression (% TGS). […]

[4] = system: NCI-H460 human non-small cell lung tumor xenografts; experiment: Tumor xenograft experiment, established s.c. NCI-H460 tumors, anti-tumor efficacy (Example 3); assay type: in vivo; settings: Ncr nu/nu mice; Navelbine 6.7 mg/kg/dose i.v. q4d×3; Compound A 40 mg/kg/dose p.o. qd×9; alone or combined; endpoint time to three mass doublings
Source text: (§3) Ncr nu/nu female mice (Taconic Farms, Germantown, N.Y.) were used for all in vivo studies invovling the DLD-1 and NCI-H460 tumor models. Female CB-17 SCID nice (Taconic Farms, Germantown, N.Y.) were used for studies involving the Mia-PaCa-2 tumor model. The mice were housed and maintained within the Comparative Medicine Department at Bayer Corporation, West Haven, Conn. in accordance with Bayer IACUC, State, and Federal guidelines for the humane treatment and care of laboratory animals. Mice received food and water ad libitum.
as §1, §2

[5] = in vivo; settings: female, Ncr nu/nu, mouse, iv, 6.7 mg/kg/dose
Source text: as §3, §2

[6] = Camptosar 40 mg/kg/dose i.p. q4d×3, Compound A 80 mg/kg/dose p.o. qd×9
Source text: as §3, §2
In the first study, Camptosar® was administered i.p at 40 mg/kg/dose.

[7] = Tolerability (body weight, mortality) in MiaPaCa-2 tumor-bearing mice (Example 2); assay type: in vivo; settings: Gemzar 120 mg/kg/dose i.p. q4d×3; Compound A p.o. qd×9 (40 mg/kg/dose, 80 mg/kg dose level); alone or concurrent
Source text: (§4) Mice received food and water ad libitum.
as §2

[8] = system: DLD-1 human colon tumor xenografts; experiment: Tumor xenograft experiment, established s.c. DLD-1 tumors, anti-tumor efficacy (Example 1); assay type: in vivo; settings: Camptosar 40 mg/kg/dose i.p. q4d×3, Compound A 80 mg/kg/dose p.o. qd×9
Source text: as §4, §2

[9] = system: MiaPaCa-2 human pancreatic tumor xenografts; experiment: Tumor xenograft experiment, established s.c. MiaPaCa-2 tumors, anti-tumor efficacy (Example 2); assay type: in vivo; settings: Gemzar 120 mg/kg/dose i.p. q4d×3
Source text: as §4, §2

Row | Compound | incidence of partial regressions (PR) ([1]; 10 mice per group) | percent tumor growth suppression (% TGS) [1] [%] | lethality [2] | percent tumor growth suppression (% TGS) [3] [%] | lethality ([6]; alone or concurrent) | lethality [7] | other results
1 | COc1cc2ncnc(Nc3ccc(F)c(Cl)c3)c2cc1OCCCN1CCOCC1 [Iressa, 4-(3-chloro-4-fluoroanilino)7-methoxy-6-(3-morpholinopropoxy)quinazoline] | 1 | 101 | no lethality | – | – | – | –
2 | COc1cccc2c1C(=O)c1c(O)c3c(c(O)c1C2=O)C[C@@](O)(C(=O)CO)C[C@@H]3O[C@H]1C[C@H](N)[C@H](O)[C@H](C)O1 [DOX, Doxorubicin HCl] | – | – | – | 43 | – | – | –
3 | CCC1=C[C@@H]2CN(C1)Cc1c([nH]c3ccccc13)[C@@](C(=O)OC)(c1cc3c(cc1OC)N(C)[C@H]1[C@@](O)(C(=O)OC)[C@H](OC(C)=O)[C@]4(CC)C=CCN5CC[C@]31[C@@H]54)C2 [Navelbine, 3′,4′-didehydro-4′deoxy-C-norvincaleukoblastine [R—(R,R)-2,3-dihydroxybutanedioate (1:2)(salt)]] | – | – | – | – | – | – | percent tumor growth suppression (% TGS) [4]: 32%; MTD at 9 days [5]: ~6.7 mg/kg
4 | CNC(=O)c1cc(Oc2ccc(NC(=O)Nc3ccc(Cl)c(C(F)(F)F)c3)cc2)ccn1 [Compound A, N-(4-chloro-3-(trifluoromethyl)phenyl)-N′-(4-(2-(N-methylcarbamoyl)-4-pyridyloxy)phenyl)urea] | 2 | 218 | no weight loss or lethality | 46 | no lethality | no lethality | incidence of complete regressions (CR) ([1]; 10 mice per group): 1
5 | CCc1c2c(nc3ccc(OC(=O)N4CCC(N5CCCCC5)CC4)cc13)-c1cc3c(c(=O)n1C2)COC(=O)[C@]3(O)CC [Camptosar, Irinotecan] | – | – | – | – | no lethality | – | weight loss ([6]; alone or concurrent): minimal weight loss; tolerability ([6]; single agents): well tolerated; incidence of complete regressions (CR) ([8]; 10 mice per group): no complete or partial tumor regressions; incidence of partial regressions (PR) ([8]; 10 mice per group): no complete or partial tumor regressions; percent tumor growth suppression (% TGS) ([8]; Ncr nu/nu mice, alone or concurrent, endpoint time to three mass doublings): 71%
6 | Nc1ccn([C@@H]2O[C@H](CO)[C@@H](O)C2(F)F)c(=O)n1 [Gemzar, Gemcitabine HCI] | – | – | – | – | – | no lethality | percent tumor growth suppression (% TGS) ([9]; CB-17 SCID mice, Compound A 40 mg/kg/dose p.o. qd×9, alone or concurrent, endpoint time to two mass doublings): 154%; incidence of complete regressions (CR) ([9]; 10 mice per group): no complete or partial tumor regressions; incidence of partial regressions (PR) ([9]; Compound A 40 mg/kg/dose p.o. qd×9, 10 mice per group): no complete or partial tumor regressions
